Test results from patent publication US20220168392A1 (priority 2019, published 2022).
Values joined by “and” are separate entries in the source; they are usually repeats but may differ in a detail not shown here. Equal values may be shown once. Square brackets hold non-standard residues; d marks the D form. * marks the point of attachment. 2Nal = N[C@@H](Cc1ccc2ccccc2c1)C(=O)O; Propionyl = CCC(=O)*; Sar = CNCC(=O)O

Experiments:
[1] = test system: Dog; assay: Maximum platelet elevation relative to baseline in normal healthy dogs, single escalating doses; assay type: in vivo; parameters: key to pharmacodynamics (PD) effect class of the dose (beneficial effects on survival): **: large pharmacodynamics (PD) effect; *: modest effect; settings: for Dog Max Platelet Ratio: TOX6985; for maximum platelet elevation: canine
From the text: The ratio of the maximum platelet counts to the baseline platelet counts following single escalating doses of RWJ-800088 to mice, rats, dogs, rhesus monkeys and human healthy volunteers is shown in Table 5. The dose required to achieve a 2-3.5-fold elevation in humans is ˜100-fold lower compared to mice, ˜1,000-fold lower compared to rats and >10,000-fold lower compared to canines and NHPs. […] The species differences in potency has been described for other TPO mimetics in the literature and is attributed to differences in receptor affinity (Erickson-Miller C L, et al. Discovery and characterization of a selective, nonpeptidyl thrombopoietin receptor agonist. Exp. Hematol. 2005; 33:85-93). […] It is discovered that the dose of RWJ-800088 that produces a survival benefit and protects against vascular and organ injury is the dose that produces a 2-4 fold elevation of platelets (Table 6).

[2] = test system: CD2F1 male mice exposed to TBI; assay: 30-day survival after total body irradiation (TBI) in CD2F1 mice; assay type: in vivo, mouse; settings: for Survival Differential (Treatment-Vehicle) / Survival treatment: CD2F1 M; for Dose Reduction Factor: male CD2F1
[3] = 9.25 Gy, 0.3 mg/kg single dose, Post 4 hr
[4] = 9.25 Gy, 0.3 mg/kg single dose, Pre −24 hr
[5] = 9.3 Gy, 0.3 mg/kg single dose, Post 24 hr
[6] = 9.3 Gy, 1 mg/kg single dose, Post 24 hr
[7] = 9.35 Gy, 0.1 mg/kg single dose, Post 24 hr
[8] = 9.35 Gy, 0.3 mg/kg single dose, Post 24 hr, listed as TPOm, 0.3 mg/kg
[9] = 9.35 Gy, 0.3 mg/kg, 2 doses 12 hours apart, Post, first dose 24 hr
[10] = 9.35 Gy, 0.3 mg/kg, 3 doses 8 hours apart, Post, first dose 24 hr
[11] = 9.35 Gy, 1 mg/kg single dose, Post 24 hr
[12] = 9.35 Gy, 2 mg/kg single dose, Post 24 hr
[13] = 9.35 Gy, 3 mg/kg single dose, Post 24 hr
[14] = 9.75 Gy, 0.1 mg/kg single dose, Post 4 hr
[15] = 9.75 Gy, 0.1 mg/kg single dose, Pre −24 hr
[16] = 9.75 Gy, 0.3 mg/kg single dose, Post 4 hr
[17] = 9.75 Gy, 0.3 mg/kg single dose, Pre −2 hr
[18] = 9.75 Gy, 0.3 mg/kg single dose, Pre −12 hr
[19] = 9.75 Gy, 0.3 mg/kg single dose, Pre −24 hr, listed as TPOm, 0.3 mg/kg
[20] = 9.75 Gy, 1 mg/kg single dose, Post 4 hr, listed as TPOm, 1 mg/kg
[21] = 9.75 Gy, 1 mg/kg single dose, Post 8 hr
[22] = 9.75 Gy, 1 mg/kg single dose, Post 12 hr
[23] = 9.75 Gy, 1 mg/kg single dose, Pre −24 hr
[24] = 9.75 Gy, 2 mg/kg single dose, Pre −24 hr
[25] = 9.75 Gy, 3 mg/kg single dose, Post 4 hr
[26] = 9.75 Gy, 3 mg/kg single dose, Pre −24 hr
[27] = 10.5 Gy, 0.1 mg/kg single dose, Pre −24 hr
[28] = 10.5 Gy, 0.3 mg/kg single dose, Pre −24 hr
[29] = 10.5 Gy, 1 mg/kg single dose, Pre −24 hr
[30] = 10.5 Gy, 3 mg/kg single dose, Pre −24 hr, listed as TPOm, 3 mg/kg
[31] = 11 Gy, 1 mg/kg single dose, Pre −2 hr
[32] = 11 Gy, 1 mg/kg single dose, Pre −12 hr
[33] = 11 Gy, 1 mg/kg single dose, Pre −24 hr, listed as TPOm, 1 mg/kg
[34] = 11.5 Gy, 3 mg/kg single dose, Pre −24 hr
[35] = 11.75 Gy, 3 mg/kg single dose, Pre −24 hr
[36] = 12 Gy, 1 mg/kg single dose, Pre −24 hr
[37] = 12 Gy, 3 mg/kg single dose, Pre −24 hr
[38] = 12.5 Gy, 1 mg/kg single dose, Pre −24 hr
[39] = 12.5 Gy, 3 mg/kg single dose, Pre −24 hr
[40] = 13 Gy, 1 mg/kg single dose, Pre −24 hr
[41] = 13.5 Gy, 1 mg/kg single dose, Pre −24 hr
[42] = 14 Gy, 1 mg/kg single dose, Pre −24 hr

“methoxypolyethyleneglycol20000-propionyl-L-Isoleucyl-L-Glutamyl-Glycyl-L-Prolyl-L-Threonyl-L-Leucyl-L-Arginyl-L-Glutaminyl-L-2-Naphthylalanyl-L-Leucyl-L-Alanyl-L-Alanyl-L-Arginyl-Sarcosyl-Ne-(methoxypolyethyleneglycol20000-propionyl-L-Isoleucyl-L-Glutamyl-Glycyl-L-Prolyl-L-Threonyl-L-Leucyl-L-Arginyl-L-Glutaminyl-L-2-Naphthylalanyl-L-Leucyl-L-Alanyl-L-Alanyl-L-Arginyl-Sarcosyl-)-Lysinamide ({mPEG 20 kDa-Propionyl}-IEGPTLRQ[2Nal]LAAR[Sar]K-NH2; also: dimer: second identical mPEG-propionyl chain on Lys Nε of C-terminal lysinamide) [RWJ-800088]” was tested, and the “Average of the Maximum Platelet Elevation/Baseline Platelet Counts” value ([1]; Dog, dose 10000 μg/kg) was 1.7, the “pharmacodynamics (PD) effect class of the dose (beneficial effects on survival)” value ([1]; Dog, dose 10000 μg/kg) was “*” and the “Dog Max Platelet Ratio” value ([1]; dose 300 μg/kg) was 1.0 ± 0.3. For the same substance, the “Dog Max Platelet Ratio” value ([1]; dose 3000 μg/kg) was 1.4 ± 0.5, the “Dog Max Platelet Ratio” value ([1]; dose 10000 μg/kg) was 1.7 ± 0.5 and the maximum platelet elevation [1] was about 7.7 fold. For the same substance, the maximum platelet elevation ([1]; listed as TPOm) was about 1.7 fold, the “dose dependence of survival” value ([2]; CD2F1, 24 hours post-TBI (9.3 Gy), doses 0.1 to 3 mg/kg (FIG. 12A)) was “increase in survival from 0.1 to 1 mg/kg and then a slight reduction in the survival benefit at 2 and 3 mg/kg” and the “Survival Differential (Treatment-Vehicle)” value (shortened to “Survival Differential”) [2, 3] was 53%. For the same substance, the Survival treatment [2, 3] was 88%, the “Survival Differential” value [2, 4] was 41% and the Survival treatment [2, 4] was 83%. For the same substance, the “Survival Differential” value [2, 5] was 42%, the Survival treatment [2, 5] was 71% and the “Survival Differential” value [2, 6] was 50%. The Survival treatment [2, 6] was 79%, the “Survival Differential” value [2, 7] was 25% and the Survival treatment [2, 7] was 58%. The Survival treatment ([2]; 9.35 Gy, 0.3 mg/kg single dose, Post 24 hr, 0.3 mg/kg) was 71%, the “Survival Differential” value [2, 8] was 25% and 17% and the Survival treatment [2, 8] was 58% and 71%. For the same substance, the “Survival Differential” value [2, 9] was 21%, the Survival treatment [2, 9] was 54% and the “Survival Differential” value [2, 10] was 8%. For the same substance, the Survival treatment [2, 10] was 50%, the “Survival Differential” value [2, 11] was 29% and the Survival treatment [2, 11] was 63%. For the same substance, the “Survival Differential” value [2, 12] was 17%, the Survival treatment [2, 12] was 50% and the “Survival Differential” value [2, 13] was 13%. For the same substance, the Survival treatment [2, 13] was 46%, the “Survival Differential” value [2, 14] was 21% and the Survival treatment [2, 14] was 42%. The “Survival Differential” value [2, 15] was 92%, the Survival treatment [2, 15] was 92% and the “Survival Differential” value [2, 16] was 42%. The Survival treatment [2, 16] was 63%, the “Survival Differential” value [2, 17] was 58% and the Survival treatment [2, 17] was 92%. For the same substance, the “Survival Differential” value [2, 18] was 96%, the Survival treatment [2, 18] was 100% and the “Survival Differential” value [2, 19] was 92% and 96%. The Survival treatment [2, 19] was 92% and 100%, the “Survival Differential” value [2, 20] was 67% and 60% and the Survival treatment [2, 20] was 88% and 80%. For the same substance, the “Survival Differential” value [2, 21] was 80%, the Survival treatment [2, 21] was 90% and the “Survival Differential” value [2, 22] was 50%. The Survival treatment [2, 22] was 70%, the “Survival Differential” value [2, 23] was 92% and the Survival treatment [2, 23] was 92%. The “Survival Differential” value [2, 24] was 96%, the Survival treatment [2, 24] was 96% and the “Survival Differential” value [2, 25] was 33%. The Survival treatment [2, 25] was 54%, the “Survival Differential” value [2, 26] was 100% and the Survival treatment [2, 26] was 100%. The “Survival Differential” value [2, 27] was 90%, the Survival treatment [2, 27] was 90% and the “Survival Differential” value [2, 28] was 95%. The Survival treatment [2, 28] was 95%, the “Survival Differential” value [2, 29] was 100% and the Survival treatment [2, 29] was 100%. The “Survival Differential” value [2, 30] was 90% and 100%, the Survival treatment [2, 30] was 90% and 100% and the “Survival Differential” value ([2]; 11 Gy, 0.1 mg/kg single dose, Pre −24 hr) was 54%. The Survival treatment ([2]; 11 Gy, 0.1 mg/kg single dose, Pre −24 hr, 0.1 mg/kg) was 54%, the Survival treatment ([2]; 11 Gy, 0.1 mg/kg single dose, Pre −24 hr, listed as TPOm, 0.1 mg/kg) was 54% and the “Survival Differential” value ([2]; 11 Gy, 0.3 mg/kg single dose, Pre −24 hr) was 83%. The Survival treatment ([2]; 11 Gy, 0.3 mg/kg single dose, Pre −24 hr, 0.3 mg/kg) was 83%, the Survival treatment ([2]; 11 Gy, 0.3 mg/kg single dose, Pre −24 hr, listed as TPOm, 0.3 mg/kg) was 83% and the “Survival Differential” value [2, 31] was 17%. The Survival treatment [2, 31] was 17%, the “Survival Differential” value [2, 32] was 100% and the Survival treatment [2, 32] was 100%. For the same substance, the Survival treatment ([2]; 11 Gy, 1 mg/kg single dose, Pre −24 hr, 1 mg/kg) was 96%, the “Survival Differential” value [2, 33] was 71% and 96% and 100% and the Survival treatment [2, 33] was 71% and 96% and 100%. The “Survival Differential” value ([2]; 11 Gy, 3 mg/kg single dose, Pre −24 hr) was 100%, the Survival treatment ([2]; 11 Gy, 3 mg/kg single dose, Pre −24 hr, 3 mg/kg) was 100% and the Survival treatment ([2]; 11 Gy, 3 mg/kg single dose, Pre −24 hr, listed as TPOm, 3 mg/kg) was 100%. The “Survival Differential” value [2, 34] was 92%, the Survival treatment [2, 34] was 92% and the “Survival Differential” value [2, 35] was 75%. The Survival treatment [2, 35] was 75%, the “Survival Differential” value [2, 36] was 88% and the Survival treatment [2, 36] was 88%. For the same substance, the “Survival Differential” value [2, 37] was 83%, the Survival treatment [2, 37] was 83% and the “Survival Differential” value [2, 38] was 54%. For the same substance, the Survival treatment [2, 38] was 54%, the “Survival Differential” value [2, 39] was 46% and the Survival treatment [2, 39] was 46%. For the same substance, the “Survival Differential” value [2, 40] was 42%, the Survival treatment [2, 40] was 42% and the “Survival Differential” value [2, 41] was 13%. For the same substance, the Survival treatment [2, 41] was 13%, the “Survival Differential” value [2, 42] was 1% and the Survival treatment [2, 42] was 1%. The “enhancement in survival efficacy” value ([2]; CD2F1 male, 1 mg/kg administered 24 h prior to radiation exposure (FIG. 13)) was about 100%, the survival ([2]; CD2F1 male, 9.35 Gy, 0.3 mg/kg 24 h pre-TBI (FIG. 3A)) was 83% and the “survival, 3-dose regimen” value ([2]; CD2F1 male, 9.35 Gy, 0.3 mg/kg/dose SC at 24 h+48 h+72 h post-TBI) was 50%. For the same substance, the “survival, 2-dose regimen” value ([2]; CD2F1 male, 9.35 Gy, 0.3 mg/kg/dose SC at 24 h+48 h post-TBI) was 54%, the survival ([2]; CD2F1 male, 9.75 Gy, RWJ-800088 treated groups 0.1-3 mg/kg 24 h pre-TBI (FIG. 3B)) was 92-100% and the percent survival ([2]; CD2F1 male, 10.5 Gy, range of doses 0.1-3 mg/kg 24 h pre-TBI (FIG. 3C)) was 90-100%. The Effects ([2]; Mice, whole body irradiation, whole wrapped cell: Enhanced survival, mitigation against thrombocytopenia, anemia, reduced adhesion protein expression on endothelial cells) was “Enhanced survival,”, the “Dose Reduction Factor” value ([2]; 1 mg/kg 24 h post-TBI (FIG. 14)) was 1.05 and the “Dose Reduction Factor” value ([2]; 1 mg/kg 24 h pre-TBI (FIG. 15)) was 1.38. For the same substance, the “optimum single dose as mitigator of radiation induced mortality in mice” value ([2]; post-TBI administration) was 0.3 to 1.0 mg/kg.
